Source: ChEMBL document CHEMBL1155902, “Nitrogen-containing flavonoid analogues as CDK1/cyclin B inhibitors: synthesis, SAR analysis, and biological activity” (Bioorg Med Chem, 2008)

What follows are compounds tested against Cyclin-dependent kinase 1/cyclin B1 (Homo sapiens, UniProt P06493) (assay: Inhibition of Cdk1/cyclin B).
Format: protein-complex assay

Cyclin-dependent kinase 1/cyclin B1, sequence (P06493 whole entry): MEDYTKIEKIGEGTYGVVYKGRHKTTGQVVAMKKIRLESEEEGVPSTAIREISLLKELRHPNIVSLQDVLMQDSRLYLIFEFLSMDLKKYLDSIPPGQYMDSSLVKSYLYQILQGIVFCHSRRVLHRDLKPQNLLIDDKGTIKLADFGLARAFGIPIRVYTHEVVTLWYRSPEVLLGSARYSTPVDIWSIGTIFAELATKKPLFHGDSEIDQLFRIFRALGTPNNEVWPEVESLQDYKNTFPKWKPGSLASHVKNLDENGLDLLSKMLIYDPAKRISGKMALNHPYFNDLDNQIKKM
Cyclin-dependent kinase 1/cyclin B1, sequence (P14635 whole entry, further chain): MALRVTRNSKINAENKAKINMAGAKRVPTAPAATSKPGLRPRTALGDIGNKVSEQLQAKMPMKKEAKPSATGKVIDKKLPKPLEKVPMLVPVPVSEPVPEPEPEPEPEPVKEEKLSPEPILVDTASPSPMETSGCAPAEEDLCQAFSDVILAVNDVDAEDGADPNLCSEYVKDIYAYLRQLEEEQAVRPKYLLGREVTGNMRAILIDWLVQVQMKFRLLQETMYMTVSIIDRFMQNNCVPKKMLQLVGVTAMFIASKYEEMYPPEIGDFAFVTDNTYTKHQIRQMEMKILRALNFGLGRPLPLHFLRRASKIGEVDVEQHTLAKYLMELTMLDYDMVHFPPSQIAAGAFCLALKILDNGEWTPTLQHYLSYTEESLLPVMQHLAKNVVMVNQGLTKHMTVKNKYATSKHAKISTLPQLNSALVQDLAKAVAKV

| SMILES | IC50 |
| --- | --- |
| COc1cc(O)c(C(=O)/C=C/c2ccccc2)cc1CN(C)C | > 20 µM |
| O=c1cc(-c2ccccc2)oc2c(CN3CCCC3)c(O)c(O)c(O)c12 | 1.22 µM |
| COc1cc(O)c(C(=O)/C=C/c2ccccc2)cc1CN1CCCCC1 | > 20 µM |
| CN(C)Cc1c(O)c(O)c(O)c2c(=O)cc(-c3ccccc3)oc12 | 1.05 µM |
| O=c1c(O)c(-c2ccc(O)c(O)c2)oc2c(CN3CCOCC3)c(O)cc(O)c12 | > 20 µM |
| COc1cc(O)c(C(=O)/C=C/c2ccccc2)cc1CN1CCOCC1 | > 20 µM |
| COc1cc(O)c(C(=O)/C=C/c2ccccc2)cc1CN1CCN(C)CC1 | > 20 µM |
| COc1cc(O)c(C(=O)/C=C/c2ccccc2)cc1CN1CCCC1 | > 20 µM |
| COc1cc(O)c(C(=O)/C=C/c2ccccc2)cc1CN1CCSCC1 | > 20 µM |
| CN1CCN(Cc2c(O)cc(O)c3c(=O)c(O)c(-c4ccc(O)c(O)c4)oc23)CC1 | > 20 µM |
| O=c1cc(-c2ccccc2)oc2cc(O)c(O)c(O)c12 [BAICALEIN] | 6.53 µM |
| O=C(O)[C@H]1O[C@@H](Oc2cc3oc(-c4ccccc4)cc(=O)c3c(O)c2O)[C@H](O)[C@@H](O)[C@@H]1O [BAICALIN] | 14.4 µM |
| O=c1c(O)c(-c2ccc(O)c(O)c2)oc2cc(O)cc(O)c12 [QUERCETIN] | > 20 µM |

The next lines start with the values.

| IC50 | SMILES |
| --- | --- |
| > 20 µM | COc1ccc(C(=O)/C=C/c2ccccc2)c(O)c1 |
| 15.7 µM | CN(C)Cc1c(O)cc(O)c2c(=O)c(O)c(-c3ccc(O)c(O)c3)oc12 |
| 1.28 µM | O=c1cc(-c2ccccc2)oc2c(CN3CCCCC3)c(O)c(O)c(O)c12 |
| 0.38 µM | O=c1cc(-c2ccccc2)oc2c(CN3CCSCC3)c(O)c(O)c(O)c12 |
| 18.7 µM | O=c1c(O)c(-c2ccc(O)c(O)c2)oc2c(CN3CCCCC3)c(O)cc(O)c12 |
| 0.27 µM | CN1CCN(Cc2c(O)c(O)c(O)c3c(=O)cc(-c4ccccc4)oc23)CC1 |
| 0.28 µM | O=c1cc(-c2ccccc2)oc2c(CN3CCOCC3)c(O)c(O)c(O)c12 |
| 11.6 µM | COC(=O)[C@H]1O[C@@H](Oc2cc3oc(-c4ccccc4)cc(=O)c3c(O)c2O)[C@H](O)[C@H](O)[C@@H]1O [BAICALIN METHYLATE] |
